According to publication PMC10294657, “The dCache Domain of the Chemoreceptor Tlp1 in Campylobacter jejuni Binds and Triggers Chemotaxis toward Formate” (mBio, 2023):

Biological target: T1, Tlp1 (Cj1506c), Tlp1-LBD (Campylobacter jejuni, UniProt Q0P8B2)
T1 construct: Tlp1-LBD (residues 31 to 326), dCache domain
Assay: ITC with purified Tlp1-LBD, pH […]°C
Assay type: binding

T1 sequence (Q0P8B2 entry or part of it): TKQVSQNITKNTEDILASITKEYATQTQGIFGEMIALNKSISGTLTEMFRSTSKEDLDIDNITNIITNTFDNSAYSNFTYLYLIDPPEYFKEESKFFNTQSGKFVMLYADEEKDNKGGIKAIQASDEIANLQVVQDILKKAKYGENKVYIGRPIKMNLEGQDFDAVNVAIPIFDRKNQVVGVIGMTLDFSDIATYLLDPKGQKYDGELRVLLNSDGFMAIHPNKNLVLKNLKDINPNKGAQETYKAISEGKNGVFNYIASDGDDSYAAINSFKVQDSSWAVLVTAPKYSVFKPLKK

O=CO [formate]
Kd: 245 ± 74 µM
